Biological target: WelP2 (Hapalosiphon welwitschii, UniProt A0A067YX78)
Experiment: in vitro prenyl diphosphate synthase assay
Type: biochemical
Details: product formed; details in SI Methods

CC(C)=CCC/C(C)=C/COP(=O)(O)OP(=O)(O)O [GPP]
in vitro prenyl diphosphate synthase assay: demonstrated that WelP2 is a dedicated geranyl diphosphate synthase to provide GPP (SI Methods)

From PMC4382313 (Chembiochem : a European journal of chemical biology, 2014)
